Assay [1] concerns JAK/STAT pathway (JAK1/JAK2-dependent nuclear translocation of STAT1-GFP). In words: Inhibition of the JAK/STAT pathway: IFN-γ stimulated nuclear translocation of STAT1-GFP in HT1080 fibrosarcoma cells. The assay is classed as cell-based. Particulars: Homo sapiens, HT-1080; HT1080 STAT1-GFP cells, 100 ng/ml IFN-γ 2 hours, compound added 30 min before; read-out: STAT1translo IC50. Put shortly: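 HT1080 cells stably expressing STAT1-GFP, compounds added 30 min before IFN-γ stimulation at final 10 μM down to 0.003 μM (0.1% DMSO). Nuclear-cytoplasmic GFP intensity differential quantified by automated imaging with Hoechst nuclear mask, ≥1000 cells per well, averaged per well.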

Another assay addresses T1, GST-JAK3(811-1124) (Homo sapiens, UniProt P52333).
T1 construct: GST-JAK3(811-1124); made in house
In words: EPK JAK-family kinases profiling assay (Caliper mobility shift), JAK3. The settings on record: ATP 80 μM, 6 nM kinase. The assay is classed as biochemical. Put shortly:
(§1)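 Turnover was read as substrate/product ratio after mobility-shift capillary-like separation of each reaction, run for 60 min at 30 °C with GST-tagged kinase domain, labelled peptide and ATP, and terminated with EDTA stop buffer.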

The target in the next assay is T2, GST-JAK2(808-1132) (Homo sapiens, UniProt O60674).
T2 construct: GST-JAK2(808-1132); purchased Invitrogen (Carlsbad, USA) #4288
T2 sequence (O60674 808-1132): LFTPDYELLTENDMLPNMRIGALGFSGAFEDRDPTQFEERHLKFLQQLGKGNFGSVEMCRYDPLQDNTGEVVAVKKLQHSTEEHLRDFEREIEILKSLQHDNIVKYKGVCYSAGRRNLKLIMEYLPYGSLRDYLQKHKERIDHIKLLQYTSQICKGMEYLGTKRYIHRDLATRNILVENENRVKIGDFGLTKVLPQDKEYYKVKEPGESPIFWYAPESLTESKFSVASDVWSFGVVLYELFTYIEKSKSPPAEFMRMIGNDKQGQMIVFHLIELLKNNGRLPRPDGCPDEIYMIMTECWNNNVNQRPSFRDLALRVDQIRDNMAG
In words: EPK JAK-family kinases profiling assay (Caliper mobility shift), JAK2. Type of assay: biochemical. Particulars: ATP 20 μM, 1.8 nM kinase. Put shortly: as §1

In another assay the target is T3, GST-TYK2(888-1187) (Homo sapiens, UniProt P29597).
T3 construct: GST-TYK2(888-1187); made in house
T3 sequence (P29597 888-1187): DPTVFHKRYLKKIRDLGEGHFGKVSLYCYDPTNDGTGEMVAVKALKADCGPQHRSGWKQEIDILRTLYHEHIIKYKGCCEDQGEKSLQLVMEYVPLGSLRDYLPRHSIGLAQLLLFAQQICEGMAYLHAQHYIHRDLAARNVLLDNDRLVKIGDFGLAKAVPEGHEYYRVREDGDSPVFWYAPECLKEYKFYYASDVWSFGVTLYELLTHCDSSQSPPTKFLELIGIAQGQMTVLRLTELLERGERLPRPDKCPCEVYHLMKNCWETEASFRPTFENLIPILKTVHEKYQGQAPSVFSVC
In words: EPK JAK-family kinases profiling assay (Caliper mobility shift), TYK2. The assay is classed as biochemical. Particulars: ATP 30 μM, 40 nM kinase. In short, it runs like this: as §1

The next assay has as its target T4, GST-JAK1(866-1154) (Homo sapiens, UniProt P23458).
T4 construct: GST-JAK1(866-1154); made in house
Nature of the assay: EPK JAK-family kinases profiling assay (Caliper mobility shift), JAK1. The assay is classed as biochemical. Particulars: ATP 40 μM, 50 nM kinase. In short, it runs like this:
as §1

The structures appear in SMILES notation. pIC50: −log10 of the molar value.

In US8193189B2, “Quinoxaline derivatives as tyrosine kinase activity inhibitors” (Novartis AG, priority 2007, dated 2012) one finds IC50 data, which are given here for 15 compounds.

T1 sequence (P52333 811-1124): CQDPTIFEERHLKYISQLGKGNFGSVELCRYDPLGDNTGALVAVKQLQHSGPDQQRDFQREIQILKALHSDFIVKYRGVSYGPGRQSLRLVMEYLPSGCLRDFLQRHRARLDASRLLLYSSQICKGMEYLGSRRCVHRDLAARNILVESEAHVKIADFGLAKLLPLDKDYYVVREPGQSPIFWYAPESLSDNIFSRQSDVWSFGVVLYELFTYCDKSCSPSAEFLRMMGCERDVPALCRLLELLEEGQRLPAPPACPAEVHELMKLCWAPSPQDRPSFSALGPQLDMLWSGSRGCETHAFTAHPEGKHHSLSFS
T4 sequence (P23458 866-1154): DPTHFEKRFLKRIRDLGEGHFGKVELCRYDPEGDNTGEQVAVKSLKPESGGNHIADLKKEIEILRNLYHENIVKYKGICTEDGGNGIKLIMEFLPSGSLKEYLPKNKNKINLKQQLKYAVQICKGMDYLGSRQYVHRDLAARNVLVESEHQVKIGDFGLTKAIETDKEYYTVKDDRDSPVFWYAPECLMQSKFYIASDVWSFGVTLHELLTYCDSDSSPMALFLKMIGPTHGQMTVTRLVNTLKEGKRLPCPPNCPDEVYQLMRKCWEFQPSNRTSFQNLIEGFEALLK

For orientation: pIC50 means the IC50 on a negative log10 scale, so that one unit is a factor of ten. In the case of `Cc1cc(-c2cccc3ncc(-c4cnn(CCCN5CCOCC5)c4)nc23)ccc1C(=O)N1CCOCC1` [Example 114, (2-Methyl-4-{3-[1-(3-morpholin-4-yl-propyl)-1H-pyrazol-4-yl]-quinoxalin-5-yl}-phenyl)-morpholin-4-yl-methanone], the pIC50 was 5.19 in assay [1]; 5.78 on GST-JAK3(811-1124); 7.94 at GST-JAK2(808-1132); 6.46 on GST-TYK2(888-1187); 6.60 at GST-JAK1(866-1154).

Turning to `O=S1(=O)CCN(Cc2c(F)cc(-c3cccc4ncc(-c5cnn(C6CCNCC6)c5)nc34)cc2F)CC1` [Example 96, 8-[4-(1,1-Dioxido-thiomorpholin-4-ylmethyl)-3,5-difluoro-phenyl]-2-(1-piperidin-4-yl-1H-pyrazol-4-yl)-quinoxaline], the pIC50 in assay [1] was 7.45; on GST-JAK3(811-1124), 6.59; at GST-JAK2(808-1132), greater than 8.52; at GST-TYK2(888-1187) it was 7.30; at GST-JAK1(866-1154), 7.28.

Take `Cc1cc(-c2cnc3cccc(-c4cc(F)c(CN5CCS(=O)(=O)CC5)c(F)c4)c3n2)ccc1C(=O)N1CCOCC1` [Example 64, (4-{8-[4-(1,1-Dioxido-thiomorpholin-4-ylmethyl)-3,5-difluoro-phenyl]-quinoxalin-2-yl}-2-methyl-phenyl)-morpholin-4-yl-methanone]: the pIC50 in assay [1] was 7.33; on GST-JAK3(811-1124) it was 6.54; on GST-JAK2(808-1132), 8.31; on GST-TYK2(888-1187), 6.78; at GST-JAK1(866-1154), 7.17.

For the compound `COCCOc1ccc(-c2cnc3cccc(-c4ccc(CN5CCS(=O)(=O)CC5)c(C)c4)c3n2)cc1OC` [Example 52, 8-[4-(1,1-Dioxido-thiomorpholin-4-ylmethyl)-3-methyl-phenyl]-2-[3-methoxy-4-(2-methoxy-ethoxy)-phenyl]-quinoxaline], the pIC50 was 5.53 in assay [1]; 5.96 at GST-JAK3(811-1124); 7.49 at GST-JAK2(808-1132); 6.01 on GST-TYK2(888-1187); 7.01 at GST-JAK1(866-1154).

For `COc1cc(-c2cnc3cccc(-c4ccc(CC(=O)N5CCOCC5)cc4)c3n2)ccc1OCCN1CCOCC1` [Example 34, 2-(4-{3-[3-Methoxy-4-(2-morpholin-4-yl-ethoxy)-phenyl]-quinoxalin-5-yl}-phenyl)-1-morpholin-4-yl-ethanone], the pIC50 in assay [1] was 6.47; at GST-JAK3(811-1124), 6.31; on GST-JAK2(808-1132), 8.39; at GST-TYK2(888-1187), 7.06; on GST-JAK1(866-1154), 7.57.

In the case of `COc1cc(-c2cnc3cccc(-c4ccc(CN5CCS(=O)(=O)CC5)c(F)c4)c3n2)ccc1OCCCN1CCOCC1` [Example 85, 8-[4-(1,1-Dioxido-thiomorpholin-4-ylmethyl)-3-fluoro-phenyl]-2-[3-methoxy-4-(3-morpholin-4-yl-propoxy)-phenyl]-quinoxaline], the pIC50 was 6.62 in assay [1]; 6.66 on GST-JAK3(811-1124); 8.49 on GST-JAK2(808-1132); 6.94 at GST-TYK2(888-1187); 7.90 at GST-JAK1(866-1154).

In the case of `COc1cc(-c2cnc3cccc(-c4ccc(CC(=O)N5CCOCC5)cc4)c3n2)ccc1OCCCN1CCOCC1` [Example 83, 2-(4-{3-[3-Methoxy-4-(3-morpholin-4-yl-propoxy)-phenyl]-quinoxalin-5-yl}-phenyl)-1-morpholin-4-yl-ethanone], the pIC50 in assay [1] is 5.68; at GST-JAK3(811-1124) it was 6.05; on GST-JAK2(808-1132), 8.20; at GST-TYK2(888-1187) it was 6.57; at GST-JAK1(866-1154), 7.47.

Turning to `Cc1cc(-c2cnc3cccc(-c4ccc(CN5CCS(=O)(=O)CC5)c(C)c4)c3n2)ccc1CN1CCOCC1` [Example 70, 8-[4-(1,1-Dioxido-thiomorpholin-4-ylmethyl)-3-methyl-phenyl]-2-(3-methyl-4-morpholin-4-ylmethyl-phenyl)-quinoxaline], the pIC50 in assay [1] was 6.25; on GST-JAK3(811-1124) it was 5.76; on GST-JAK2(808-1132), 7.52; on GST-TYK2(888-1187) it was 5.87; on GST-JAK1(866-1154), 6.44.

As for `COCCOc1ccc(-c2cnc3cccc(-c4cc(F)c(CN5CCOCC5)c(F)c4)c3n2)cc1OC` [Example 50, 8-(3,5-Difluoro-4-morpholin-4-ylmethyl-phenyl)-2-[3-methoxy-4-(2-methoxy-ethoxy)-phenyl]-quinoxaline], the pIC50 is 5.78 in assay [1]; less than 5.00 at GST-JAK3(811-1124); 8.15 at GST-JAK2(808-1132); 5.80 on GST-TYK2(888-1187); 7.42 on GST-JAK1(866-1154).

Turning to `O=C(c1c(F)cc(-c2cccc3ncc(-c4cnn(C5CCOCC5)c4)nc23)cc1F)N1CCOCC1` [Example 119, (2,6-Difluoro-4-{3-[1-(tetrahydro-pyran-4-yl)-1H-pyrazol-4-yl]-quinoxalin-5-yl}-phenyl)-morpholin-4-yl-methanone], the pIC50 in assay [1] is 6.47; at GST-JAK3(811-1124), 5.19; on GST-JAK2(808-1132), 8.01; at GST-TYK2(888-1187) it was 6.55; on GST-JAK1(866-1154), 6.60.

With `COc1cc(-c2cnc3cccc(-c4ccc(C(=O)N5CCOCC5)c(F)c4)c3n2)ccc1OCCN1CCOCC1` [Example 35, (2-Fluoro-4-{3-[3-methoxy-4-(2-morpholin-4-yl-ethoxy)-phenyl]-quinoxalin-5-yl}-phenyl)-morpholin-4-yl-methanone], the pIC50 in assay [1] is 5.76; on GST-JAK3(811-1124) it was 5.73; at GST-JAK2(808-1132), 7.92; at GST-TYK2(888-1187), 6.28; at GST-JAK1(866-1154), 7.03.

`CCN1CCN(Cc2ccc(-c3cnc4cccc(-c5ccc(CN6CCOCC6)c(F)c5)c4n3)cc2C)CC1` [Example 93, 2-[4-(4-Ethyl-piperazin-1-ylmethyl)-3-methyl-phenyl]-8-(3-fluoro-4-morpholin-4-ylmethyl-phenyl)-quinoxaline]: the pIC50 in assay [1] is 5.52; on GST-JAK3(811-1124), 5.90; at GST-JAK2(808-1132), 7.66; at GST-TYK2(888-1187), 6.17; at GST-JAK1(866-1154), 6.73.

Take `CN(C)CCN(C)C(=O)c1ccc(-c2cnc3cccc(-c4cc(F)c(CN5CCS(=O)(=O)CC5)c(F)c4)c3n2)cn1` [Example 111, 5-{8-[4-(1,1-Dioxido-thiomorpholin-4-ylmethyl)-3,5-difluoro-phenyl]-quinoxalin-2-yl}-pyridine-2-carboxylic acid (2-dimethylamino-ethyl)-methyl-amide]: the pIC50 is 5.91 in assay [1]; 5.03 on GST-JAK3(811-1124); 6.98 on GST-JAK2(808-1132); 5.77 on GST-TYK2(888-1187); 6.04 on GST-JAK1(866-1154).

For `Cc1cc(-c2cnc3cccc(-c4cc(F)c(CN5CCS(=O)(=O)CC5)c(F)c4)c3n2)ccc1C(=O)N(C)CCN(C)C` [Example 95, N-(2-Dimethylamino-ethyl)-4-{8-[4-(1,1-dioxido-thiomorpholin-4-ylmethyl)-3,5-difluoro-phenyl]-quinoxalin-2-yl}-2,N-dimethyl-benzamide], the pIC50 in assay [1] was 6.98; on GST-JAK3(811-1124), 7.13; at GST-JAK2(808-1132) it was greater than 8.52; at GST-TYK2(888-1187) it was 7.40; on GST-JAK1(866-1154), 7.74.

`Cc1cc(-c2cnc3cccc(-c4cc(F)c(CN5CCOCC5)c(F)c4)c3n2)cnc1C(=O)N(C)CCN(C)C` [Example 112, 5-[8-(3,5-Difluoro-4-morpholin-4-ylmethyl-phenyl)-quinoxalin-2-yl]-3-methyl-pyridine-2-carboxylic acid (2-dimethylamino-ethyl)-methyl-amide]: the pIC50 is 4.87 in assay [1]; less than 5.00 on GST-JAK3(811-1124); 6.49 at GST-JAK2(808-1132); less than 5.00 on GST-TYK2(888-1187); 5.27 on GST-JAK1(866-1154).
